Laboratory results: paper PMC8471592, “Characterization of Conserved and Promiscuous Human Rhinovirus CD4 T Cell Epitopes” (Cells, 2021)
Ends that are not written are not given here.

Experiments:
[1] = molecular target: HLA-DRB1*04:04 (Homo sapiens, UniProt P01903+P01911, A100R/A169T/F76Y/I96L/K127E/L162R/M171V/N62H/P40V/Q125Y/R42H/S133A/S149N/S66Y/V209L/W38E); test: Competitive inhibition HLA II binding assay; conditions: competition with radiolabeled probe peptide, purified HLA II, 0.3 nM–30 µM, 2-day incubation; mean of three or more independent assays
[2] = molecular target: HLA-DRB1*09:01 (Homo sapiens, UniProt P01903+P01911, A100R/A103E/D57H/D86V/F55Y/F60I/F76Y/I96F/K127E/L162R/M171V/P40D/Q125H/Q99R/R33Q/R42F/S133A/S66N/T210M/V115G/W38K/Y107V/Y59G/Y89S); test: Competitive inhibition HLA II binding assay; conditions: competition with radiolabeled probe peptide, purified HLA II, 0.3 nM–30 µM, 2-day incubation; mean of three or more independent assays
[3] = molecular target: HLA-DRB1*11:04 (Homo sapiens, UniProt P01903+P01911, A100R/A169T/A87E/I96F/K41T/L162R/M171V/P40S/Q125H/Q178H/Q39Y/Q99D/R42S/S66Y/T262R/W38E); test: Competitive inhibition HLA II binding assay; conditions: competition with radiolabeled probe peptide, purified HLA II, 0.3 nM–30 µM, 2-day incubation; mean of three or more independent assays
[4] = molecular target: HLA-DRB1*13:02 (Homo sapiens, UniProt P01903+P01911, A100E/A169T/K41T/L162R/M171V/P40S/Q125H/Q178H/Q39Y/Q99D/R42S/S66N/T262R/V115G/W38E/Y61H); test: Competitive inhibition HLA II binding assay; conditions: competition with radiolabeled probe peptide, purified HLA II, 0.3 nM–30 µM, 2-day incubation; mean of three or more independent assays
[5] = molecular target: HLA-DRB1*07:01 (Homo sapiens, UniProt P01903+P01911, A100R/A102G/A103Q/D57E/D86V/E43K/F76Y/K127E/L162R/M171V/P40G/Q125H/Q99D/R33Q/R42Y/R54Q/S133A/S66F/T210M/V115G/Y107V/Y59L/Y89S); test: Competitive inhibition HLA II binding assay; conditions: competition with radiolabeled probe peptide, purified HLA II, 0.3 nM–30 µM, 2-day incubation; mean of three or more independent assays
[6] = molecular target: HLA-DRB1*08:02 (Homo sapiens, UniProt P01903+P01911, A100R/A103L/A169T/F76Y/H45Y/I96F/K41T/L162R/M171V/P40S/Q125H/Q178H/Q39Y/Q99D/R218S/R42G/S66Y/V115G/W38E); test: Competitive inhibition HLA II binding assay; conditions: competition with radiolabeled probe peptide, purified HLA II, 0.3 nM–30 µM, 2-day incubation; mean of three or more independent assays
[7] = molecular target: HLA-DRB1*11:01 (Homo sapiens, UniProt P01903+P01911, A100R/A169T/A87E/I96F/K41T/L162R/M171V/P40S/Q125H/Q178H/Q39Y/Q99D/R42S/S66Y/T262R/V115G/W38E); test: Competitive inhibition HLA II binding assay; conditions: competition with radiolabeled probe peptide, purified HLA II, 0.3 nM–30 µM, 2-day incubation; mean of three or more independent assays
[8] = molecular target: HLA-DRB1*03:01 (Homo sapiens, UniProt P01903+P01911, A100K/A102G/A103R/A169T/F55Y/I96L/K41T/L162R/M171V/P40S/Q125H/Q178H/Q39Y/R42S/S66N/T106N/T262R/W38E/Y61H); test: Competitive inhibition HLA II binding assay; conditions: competition with radiolabeled probe peptide, purified HLA II, 0.3 nM–30 µM, 2-day incubation; mean of three or more independent assays
[9] = tested on: PBMCs from three HLA II-typed donors; test: IFNγ-ELISPOT assay; type: cell-based, human; conditions: 10 μM peptide, 1 × 10^5 PBMCs, 24 h, triplicate; positive if >60 SFC/10^6 PBMCs after background subtraction
Experimental: Peptide-specific IFNγ production by PBMCs from HLA II-typed donors was detected by standard IFNγ ELISPOT assays. Briefly, 96-well PVDF plates (Millipore, Darmstadt, Germany) were coated with anti-IFNγ (1-D1K mAb, Mabtech, Stockholm, Sweden) and 1 × 10^5 PBMCs were pleated with RPMI 1640 (Gibco, Waltham, MA, USA), supplemented with 10% of fetal bovine serum (Gibco, Waltham, MA, USA), 100 µg/mL streptomycin, 100 U/mL penicillin, and 2 mM L-glutamine (Lonza, Basel, Switzerland). Individual RV peptides were added at 10 μM. Plates were incubated at 37 °C and 5% CO2 and, after 24 h, were processed according to the manufacturer’s instructions. PBMCs incubated with 10 μg/mL phytohemagglutinin (PHA) or without any stimuli were used as positive and background controls, respectively. The assay was run in triplicate for each individual peptide. The number of IFNγ-secreting cells (spot forming cells (SFCs)) was determined with an ELISPOT reader (ImmunoSpot 5.0, CTL Analyzers, Shaker Heights, OH, USA).

| Molecule | IC50 [1] [nM] | IC50 [2] [nM] | IC50 [3] [nM] | IC50 [4] [nM] | IC50 [5] [nM] | IC50 [6] [nM] | IC50 [7] [nM] | IC50 [8] [nM] | IFNγ recall response in ELISPOT [9] |
| --- | --- | --- | --- | --- | --- | --- | --- | --- | --- |
| CC[C@H](C)[C@H](NC(=O)CNC(=O)[C@H](CCCCN)NC(=O)[C@H](CCC(=O)O)NC(=O)[C@H](CC(C)C)NC(=O)[C@@H](NC(=O)[C@H](CC(=O)O)NC(=O)[C@H](CCCCN)NC(=O)[C@@H](N)C(C)C)C(C)C)C(=O)N1CCC[C@H]1C(=O)N[C@H](C(=O)N[C@@H](CC(C)C)C(=O)N[C@@H](CCC(N)=O)C(=O)N[C@@H](CO)C(=O)N1CCC[C@H]1C(=O)N[C@H](C(=O)N[C@H](C(=O)N[C@@H](CCC(=O)O)C(=O)O)C(C)C)[C@@H](C)O)[C@@H](C)O [RVA57–74] | 4100 | 9540 |  |  |  |  |  |  |  |
| CC[C@H](C)[C@H](NC(=O)[C@@H](NC(=O)[C@H](CO)NC(=O)[C@@H](N)CC(=O)O)[C@@H](C)O)C(=O)N[C@H](C(=O)N[C@@H](CO)C(=O)N[C@@H](CCC(N)=O)C(=O)N[C@@H](CC(=O)O)C(=O)N[C@H](C(=O)N[C@@H](C)C(=O)N[C@@H](CC(N)=O)C(=O)N[C@@H](C)C(=O)N[C@H](C(=O)N[C@H](C(=O)NCC(=O)N[C@@H](Cc1ccc(O)cc1)C(=O)NCC(=O)N[C@H](C(=O)O)C(C)C)C(C)C)C(C)C)C(C)C)[C@@H](C)O [RVA89–106] | 19 | 1200 | 5820 | 6650 | 865 | 5170 |  |  |  |
| CC(C)C[C@H](NC(=O)[C@H](Cc1ccc(O)cc1)NC(=O)[C@H](Cc1c[nH]cn1)NC(=O)[C@@H]1CCCN1C(=O)[C@H](Cc1c[nH]c2ccccc12)NC(=O)[C@@H](NC(=O)CNC(=O)[C@H](Cc1ccc(O)cc1)NC(=O)CNC(=O)[C@@H](NC(=O)[C@@H](NC(=O)[C@H](C)NC(=O)[C@H](CC(N)=O)NC(=O)[C@H](C)NC(=O)[C@@H](N)C(C)C)C(C)C)C(C)C)C(C)C)C(=O)N[C@H](C(=O)N1CCC[C@H]1C(=O)N[C@@H](CCC(=O)O)C(=O)O)[C@@H](C)O [RVA97–114] | 5580 | 11500 | 19700 | 11600 | 1300 | 453 | 1100 |  |  |
| DLPYVTYLKDELR [RVC1835–1847] | 773 |  |  |  |  | 2600 |  |  |  |
| GLEPLDLNTSAGFPYV [RVC1791–1806] | 1100 |  |  | 62 | 1200 |  |  | 8400 |  |
| INLRTNNSSTIVVPYIN [RVC258–274] | 3430 | 840 |  | 40 | 411 |  |  |  |  |
| KEKFRDIRRFIP [RVC1582–1592] | 8680 | 2730 | 101 |  | 13000 | 44 | 33 |  |  |
| YEIQESEYYPKHIQY [RVC945–959, RV C 2A peptide, position 945–959] |  |  |  |  |  |  |  |  | able to stimulate IFNγ production by T cells in at least one donor |
| YGDDVIFSY [RVA2029–2037, reference compound] |  |  |  |  |  |  |  |  | not immunogenic in IFNγ ELISPOT assays |
